Consider one compound from US20160002710A1, “REPORTER PHAGE AND […] BACTERIA” (priority 2014, published 2016).

Values after ≈ are worked out from the molar mass of the structure shown.

Holding throughout (format): cell-based
One assay deals with E. coli ATCC 25922. The assay can be described thus: microbe, parasite or virus in culture. The following applies: Escherichia coli, ATCC25922; cation-adjusted Mueller Hinton broth, 35° C., 20 h; within the acceptable range. The method, then:
(§1) Cells (5×10^5 CFU/mL) and antibiotics were prepared in cation-adjusted Mueller Hinton broth according to CLSI methodology. […] The same Shigella inoculum was grown for 5 h at 35° C. in the presence of antibiotics, infected with Shfl::luxAB, and bioluminescence assayed after 20 min.

Assay [1] has as its system S. flexneri ATCC 25875. The assay can be described thus: Reporter phage (Shfl25875::luxAB) bioluminescence antibiotic susceptibility assay. The following applies: 5 h growth with antibiotic, infection with reporter phage, read after 20 min. As to the method:
as §1
(§2) Therefore, the ability of Shfl25875::luxAB to confer bioluminescence signal to Shigella spp. in the presence of antibiotics was compared to the standard CLSI broth microdilution method. […] Cells were incubated with a range of antibiotic concentrations in microtiter plates, incubated at 35° C., and assessed for growth (A625) after 20 h as per the CLSI protocol, or bioluminescence following infection by Shfl25875::luxAB.

Assay [2] has as its system S. flexneri ATCC 25875. As to the kind of experiment: microbe, parasite or virus in culture. The following applies: Shigella flexneri, ATCC25875; growth (A625) after 20 h at 35° C.; read-out: minimum inhibitory concentration. The method, then:
as §1, §2

For the compound `CC1(C)S[C@@H]2[C@H](NC(=O)[C@H](N)c3ccccc3)C(=O)N2[C@H]1C(=O)O` [ampicillin], the MIC against E. coli ATCC 25922 was 2 µg/mL (≈ 5.72 µM); in the assay on S. flexneri ATCC 25875 [2], 1 µg/mL (≈ 2.86 µM). The “Bioluminescence at antibiotic concentrations at the minimum inhibitory concentration or higher” value with S. flexneri ATCC 25875 [1] is given as “at or close to background”.
